Measured values taken from patent publication US20260102501A1, “ANTI-CANCER NUCLEAR HORMONE RECEPTOR-TARGETING COMPOUNDS” (Nuvation Bio Inc., priority 2022, published 2026).
Changes are numbered by the printed parent chain. Counter-ions that a name gives are not always drawn. Like-named read-outs stand apart in the source and are kept apart here.

Columns and labels:
[1] = test system: LNCap cells; assay: Cell viability assay (CellTiterGlo); type: cell-based; settings: Homo sapiens, 144 h
[2] = test system: T47D cells; assay: Cell viability assay (CellTiterGlo); type: cell-based; settings: Homo sapiens, 144 h
[3] = target: T1, AR (cytosol from LnCaP cells) (Homo sapiens, UniProt P10275, T878A); assay: AR binding assay (3H-R1881 displacement)
T1 sequence (P10275 1-920 T878A): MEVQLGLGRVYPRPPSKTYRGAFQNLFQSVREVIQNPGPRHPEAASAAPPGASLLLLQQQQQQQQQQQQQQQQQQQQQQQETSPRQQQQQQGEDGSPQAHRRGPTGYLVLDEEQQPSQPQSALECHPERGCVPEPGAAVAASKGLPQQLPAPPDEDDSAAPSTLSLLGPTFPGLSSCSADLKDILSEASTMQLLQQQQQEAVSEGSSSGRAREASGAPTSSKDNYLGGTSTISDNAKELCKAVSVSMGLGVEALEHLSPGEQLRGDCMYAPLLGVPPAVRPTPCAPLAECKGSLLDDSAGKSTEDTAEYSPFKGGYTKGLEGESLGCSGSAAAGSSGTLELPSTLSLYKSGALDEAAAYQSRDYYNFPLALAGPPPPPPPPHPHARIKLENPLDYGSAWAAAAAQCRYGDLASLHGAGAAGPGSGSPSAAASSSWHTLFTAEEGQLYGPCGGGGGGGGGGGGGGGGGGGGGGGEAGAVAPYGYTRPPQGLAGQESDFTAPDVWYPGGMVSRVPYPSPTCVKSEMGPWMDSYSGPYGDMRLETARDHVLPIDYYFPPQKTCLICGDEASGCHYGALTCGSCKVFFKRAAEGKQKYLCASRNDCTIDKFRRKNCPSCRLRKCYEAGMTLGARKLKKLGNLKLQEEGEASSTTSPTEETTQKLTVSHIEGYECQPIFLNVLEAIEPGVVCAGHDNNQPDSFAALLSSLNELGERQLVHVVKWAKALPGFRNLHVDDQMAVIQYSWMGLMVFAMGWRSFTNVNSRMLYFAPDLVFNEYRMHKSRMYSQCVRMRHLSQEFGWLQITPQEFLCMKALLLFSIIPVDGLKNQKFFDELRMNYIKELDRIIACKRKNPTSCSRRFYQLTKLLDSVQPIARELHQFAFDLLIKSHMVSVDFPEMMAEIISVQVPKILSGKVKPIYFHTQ
Protocol: The plate was then centrifuged at 3000 rpm for 30 minutes at 4° C.

[4] = target: T2, full-length androgen receptor (HEK293 cells stably expressing) (Homo sapiens, UniProt P10275); assay: AR antagonism assay (luciferase reporter)
T2 sequence (P10275 1-920): T1 sequence (P10275 1-920 T878A) with A878T

[5] = target: T3, GR (cytosol from IM-9 cells) (Homo sapiens, UniProt P04150); assay: GR binding assay (3H-Dexamethasone displacement)
T3 sequence (P04150 1-777): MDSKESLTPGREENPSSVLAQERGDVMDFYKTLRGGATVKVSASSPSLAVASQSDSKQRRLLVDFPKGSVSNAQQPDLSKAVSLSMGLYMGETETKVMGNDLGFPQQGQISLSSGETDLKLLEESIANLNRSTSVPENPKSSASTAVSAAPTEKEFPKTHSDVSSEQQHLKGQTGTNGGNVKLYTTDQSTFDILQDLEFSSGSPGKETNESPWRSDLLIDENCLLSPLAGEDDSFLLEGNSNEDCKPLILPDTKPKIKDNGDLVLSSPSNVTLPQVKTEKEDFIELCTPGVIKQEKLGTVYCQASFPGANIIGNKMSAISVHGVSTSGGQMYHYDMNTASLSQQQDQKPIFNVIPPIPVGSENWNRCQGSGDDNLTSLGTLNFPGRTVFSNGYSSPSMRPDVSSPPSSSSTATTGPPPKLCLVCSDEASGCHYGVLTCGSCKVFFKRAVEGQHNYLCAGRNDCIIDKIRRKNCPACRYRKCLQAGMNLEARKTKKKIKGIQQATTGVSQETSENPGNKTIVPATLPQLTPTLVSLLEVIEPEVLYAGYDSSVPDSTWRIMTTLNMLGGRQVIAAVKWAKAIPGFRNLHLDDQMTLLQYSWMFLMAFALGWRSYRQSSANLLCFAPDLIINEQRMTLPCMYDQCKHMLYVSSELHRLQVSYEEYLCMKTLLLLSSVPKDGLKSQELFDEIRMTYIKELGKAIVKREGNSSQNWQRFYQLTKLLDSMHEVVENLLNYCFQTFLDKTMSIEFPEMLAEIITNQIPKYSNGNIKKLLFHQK

[6] = test system: IEC6 cells; assay: Cell viability assay (CellTiterGlo); settings: Rattus norvegicus, IEC-6, 144 h, read-out: IEC-6 (IC50, nM)
[7] = test system: 22Rv1 cells; assay: Cell viability assay (CellTiterGlo); settings: Homo sapiens, 22Rv1, 144 h, read-out: 22RV1 (IC50, nM)
Protocol: Cell viability assay: LNCap, 22Rv1, MCF7, MDAMB361, T47D, and IEC6 cells were seeded at a density of 500-2000 cells/well in 96 well plates, and a ‘T0’ (timepoint 0) was included along with the assay plate. The plates were then incubated at 37° C., 5% CO2 in a cell culture incubator overnight. On the next day, the ‘T0’ plate was assayed using CellTiterGlo (Promega, Inc) according to the manufacturer's instructions. The appropriate compounds were diluted in DMSO and added to the assay plate (final DMSO concentration of 0.1-0.2%) on the next day. The assay plates were incubated for 6 days at 37° C., 5% CO2. After the incubation period, the plates were assayed using CellTiterGlo (Promega, Inc) according to the manufacturer's instructions and luminescence was read on the En Vision plate reader. […] GraphPadPrism was used to analyze the data and determine GI50/IC50 values.

[8] = target: T4, ligand binding domain of the glucocorticoid receptor (HEK293 cells stably expressing) (Homo sapiens, UniProt P04150); assay: GR antagonism assay (luciferase reporter)
T4 sequence (P04150 524-758 limits assumed): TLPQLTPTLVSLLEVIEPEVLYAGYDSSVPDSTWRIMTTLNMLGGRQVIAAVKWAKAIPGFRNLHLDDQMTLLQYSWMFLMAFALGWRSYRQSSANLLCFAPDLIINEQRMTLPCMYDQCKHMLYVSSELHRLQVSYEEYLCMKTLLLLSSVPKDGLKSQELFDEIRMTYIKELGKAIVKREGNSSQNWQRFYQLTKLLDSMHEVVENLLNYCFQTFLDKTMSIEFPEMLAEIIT

[9] = 6 days incubation, CellTiterGlo, read-out: LNCap (IC50)
[10] = 6 days incubation, CellTiterGlo, read-out: T47D (IC50)

Question: With CC[C@@]1(O)C(=O)OCc2c1cc1n(c2=O)Cc2cc3c(CN(C)C)c(OC(=O)N(C)Cc4ccc(NC(=O)[C@H](CCCNC(N)=O)NC(=O)[C@@H](NCCCCCCN(C)c5ccc([C@H]6C[C@@]7(C)[C@@H](CC[C@]7(OC(C)=O)C(C)=O)[C@@H]7CCC8=CC(=O)CCC8=C76)cc5)C(C)C)cc4)ccc3nc2-1 [Compound No. 60] as the compound, how does the IC50 ([1]; read-out: LNCap (IC50, nM)) read?
Answer: > 1000 nM

Question: What about the IC50 ([2]; read-out: T47D (IC50, nM)) of the same compound?
Answer: > 1000 nM

Question: And the IC50 [3]?
Answer: 10 to 100 nM

Question: And the IC50 [4]?
Answer: > 1000 nM

Question: And the IC50 [5]?
Answer: < 10 nM

Question: How did the IC50 ([1]; read-out: LNCap (IC50, nM)) turn out when CC[C@@]1(O)C(=O)OCc2c1cc1n(c2=O)Cc2c-1nc1cc(F)c(C)c3c1c2[C@@H](NC(=O)OCc1ccc(NC(=O)[C@H](CCCNC(N)=O)NC(=O)[C@@H](NCCCCCCN(C)c2ccc([C@H]4C[C@@]5(C)[C@@H](CC[C@]5(OC(C)=O)C(C)=O)[C@@H]5CCC6=CC(=O)CCC6=C54)cc2)C(C)C)cc1)CC3 [Compound 59] was run?
Answer: 10 to 100 nM

Question: And the IC50 ([2]; read-out: T47D (IC50, nM))?
Answer: 10 to 100 nM

Question: What about the IC50 [3] of the same compound?
Answer: 101 to 1000 nM

Question: And the IC50 [4]?
Answer: 101 to 1000 nM

Question: And the IC50 [5]?
Answer: 10 to 100 nM

Question: For CC[C@@]1(O)C(=O)OCc2c1cc1n(c2=O)Cc2c-1nc1cc(F)c(C)c3c1c2[C@@H](N(C)C(=O)COCCC(=O)N1CCC(CN(C)c2ccc([C@H]4C[C@@]5(C)[C@@H](CC[C@]5(OC(C)=O)C(C)=O)[C@@H]5CCC6=CC(=O)CCC6=C54)cc2)CC1)CC3 [Compound 54], which IC50 [1, 9] is on record?
Answer: 10 to 100 nM

Question: What about the IC50 [2, 10] of the same compound?
Answer: 101 to 1000 nM

Question: What about the IC50 [6] of the same compound?
Answer: 101 to 1000 nM

Question: How did the IC50 [1, 9] turn out when CC[C@@]1(OC(=O)N2CCN(CCCCCCN(C)c3ccc([C@H]4C[C@@]5(C)[C@@H](CC[C@]5(OC(C)=O)C(C)=O)[C@@H]5CCC6=CC(=O)CCC6=C54)cc3)CC2)C(=O)OCc2c1cc1n(c2=O)Cc2cc3cc(O)ccc3nc2-1 [Compound 57, (S)-4-ethyl-9-hydroxy-3,14-dioxo-3,4,12,14-tetrahydro-1H-pyrano[3′,4′:6,7]indolizino[1,2-b]quinolin-4-yl 4-(6-((4-((8S,11R,13S,14S,17R)-17-acetoxy-17-acetyl-13-methyl-3-oxo-2,3,6,7,8,11,12,13,14,15,16,17-dodecahydro-1H-cyclopenta[a]phenanthren-11-yl)phenyl)(methyl)amino)hexyl)piperazine-1-carboxylate] was run?
Answer: 101 to 1000 nM

Question: And the IC50 [2, 10]?
Answer: 10 to 100 nM

Question: And the IC50 [6]?
Answer: > 1000 nM

Question: What about the IC50 [3] of the same compound?
Answer: 10 to 100 nM

Question: And the IC50 [5]?
Answer: < 10 nM

Question: With CC[C@@]1(O)C(=O)OCc2c1cc1n(c2=O)Cc2cc3c(CN(C)C)c(OC(=O)N4CCN(CCCCCCNc5ccc([C@H]6C[C@@]7(C)[C@@H](CC[C@]7(OC(C)=O)C(C)=O)[C@@H]7CCC8=CC(=O)CCC8=C76)cc5)CC4)ccc3nc2-1 [Compound No. 61, (S)-10-((dimethylamino)methyl)-4-ethyl-4-hydroxy-3,14-dioxo-3,4,12,14-tetrahydro-1H-pyrano[3′,4′:6,7]indolizino[1,2-b]quinolin-9-yl 4-(6-((4-((8S,11R,13S,14S,17R)-17-acetoxy-17-acetyl-13-methyl-3-oxo-2,3,6,7,8,11,12,13,14,15,16,17-dodecahydro-1H-cyclopenta[a]phenanthren-11-yl)phenyl)amino)hexyl)piperazine-1-carboxylate] as the compound, how does the IC50 ([1]; read-out: LNCap (IC50, nM)) read?
Answer: 101 to 1000 nM

Question: What about the IC50 ([2]; read-out: T47D (IC50, nM)) of the same compound?
Answer: 10 to 100 nM

Question: And the IC50 [3]?
Answer: 10 to 100 nM

Question: What about the IC50 [4] of the same compound?
Answer: 101 to 1000 nM

Question: What about the IC50 [5] of the same compound?
Answer: < 10 nM

Question: With CC[C@@]1(O)C(=O)OCc2c1cc1n(c2=O)Cc2cc3c(CN(C)C)c(OC(=O)N4C[C@H](C)N(C(=O)C5CCN(c6ccc(C(=O)N[C@H]7CC[C@H](Oc8ccc(C#N)c(Cl)c8C)CC7)nn6)CC5)C[C@H]4C)ccc3nc2-1 [Compound No. 21, (S)-10-((Dimethylamino)methyl)-4-ethyl-4-hydroxy-3,14-dioxo-3,4,12,14-tetrahydro-1H-pyrano[3′,4′:6,7]indolizino[1,2-b]quinolin-9-yl (2R,5S)-4-(1-(6-(((1r,4r)-4-(3-chloro-4-cyano-2-methylphenoxy)cyclohexyl)carbamoyl)pyridazin-3-yl)piperidine-4-carbonyl)-2,5-dimethylpiperazine-1-carboxylate Formate] as the compound, how does the IC50 ([1]; read-out: LNCap (IC50, nM)) read?
Answer: 10 to 100 nM

Question: And the IC50 [7]?
Answer: 101 to 1000 nM

Question: What about the IC50 [6] of the same compound?
Answer: > 1000 nM

Question: And the IC50 [3]?
Answer: < 10 nM

Question: And the IC50 [4]?
Answer: > 1000 nM

Question: And the IC50 [8]?
Answer: > 1000 nM

Question: And the IC50 [5]?
Answer: > 1000 nM

Question: For CC[C@@]1(O)C(=O)OCc2c1cc1n(c2=O)Cc2cc3c(CN4CCN(CC5CCN(c6ccc(C(=O)N[C@H]7CC[C@H](N(C)c8ccc(C#N)c(Cl)c8)CC7)nn6)CC5)CC4)c(OC)ccc3nc2-1 [Compound 40, N-((1r,4r)-4-((3-chloro-4-cyanophenyl)(methyl)amino)cyclohexyl)-6-(4-((4-(((S)-4-ethyl-4-hydroxy-9-methoxy-3,14-dioxo-3,4,12,14-tetrahydro-1H-pyrano[3′,4′:6,7]indolizino[1,2-b]quinolin-10-yl)methyl)piperazin-1-yl)methyl)piperidin-1-yl)pyridazine-3-carboxamide formic acid salt], which IC50 [1, 9] is on record?
Answer: 101 to 1000 nM

Question: What about the IC50 [2, 10] of the same compound?
Answer: 10 to 100 nM

Question: And the IC50 [6]?
Answer: 101 to 1000 nM

Question: And the IC50 [3]?
Answer: 10 to 100 nM

Question: What about the IC50 [4] of the same compound?
Answer: > 1000 nM
